Test results as given in PubChem BioAssay (NCI).
Where “and” joins values, the source holds several entries; their conditions need not be identical. Equal entries are not always repeated.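 Assay format: 96-well plates, 48-hour exposure. At the GI50, growth is halved. TGI denotes the concentration required for complete inhibition of growth.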

Experiments:
Assay in all cases: inhibition of tumour cell growth, NCI panel, 48 h
DU-145 prostate = tested on: DU-145 prostate
HOP-62 NSCLC = tested on: HOP-62 NSCLC
IGROV1 ovarian = tested on: IGROV1 ovarian
MDA-MB-231 breast = tested on: MDA-MB-231 breast
MOLT-4 leukemia = tested on: MOLT-4 leukemia
SF-539 CNS = tested on: SF-539 CNS
SW-620 colon = tested on: SW-620 colon
T-47D breast = tested on: T-47D breast
UACC-62 melanoma = tested on: UACC-62 melanoma
HL-60(TB) leukemia = tested on: HL-60(TB) leukemia

Structure (SMILES)	GI50 (DU-145 prostate)	TGI (DU-145 prostate)	GI50 (HOP-62 NSCLC)	TGI (HOP-62 NSCLC)	GI50 (IGROV1 ovarian)	TGI (IGROV1 ovarian)	GI50 (MDA-MB-231 breast)	TGI (MDA-MB-231 breast)	GI50 (MOLT-4 leukemia)	TGI (MOLT-4 leukemia)	GI50 (SF-539 CNS)	TGI (SF-539 CNS)	GI50 (SW-620 colon)	TGI (SW-620 colon)	GI50 (T-47D breast)	TGI (T-47D breast)	GI50 (UACC-62 melanoma)	TGI (UACC-62 melanoma)	TGI (HL-60(TB) leukemia)	GI50 (HL-60(TB) leukemia)
C=C1C(=O)O[C@H]2[C@H]1CC/C(COC(=O)CSCSCC(=O)OC/C1=C/CC[C@@]3(C)O[C@H]3[C@H]3OC(=O)C(=C)[C@@H]3CC1)=C\CC[C@@]1(C)O[C@@H]21	1.66 µM	3.19 µM	2.59 µM	8.38 µM	1.78 µM	4.46 µM	1.39 µM	3 µM	0.505 µM	3.09 µM	1.47 µM	2.89 µM	1.41 µM	3.26 µM	1.53 µM	3.7 µM	1.88 µM	4.03 µM		
C=CCNC(=O)N(CCCCC(NC(C)=O)C(=O)NCc1ccccc1)Cc1ccccc1 (centres undefined)				> 100 µM		> 100 µM				> 100 µM		> 100 µM		> 100 µM				> 100 µM	> 100 µM	
OC(Cc1ccncc1)C(Cl)(Cl)Cl (centres undefined)	> 100 µM	> 100 µM	> 100 µM	> 100 µM			> 100 µM	> 100 µM	0.0988 µM	> 100 µM	> 100 µM	> 100 µM	> 100 µM	> 100 µM	> 100 µM	> 100 µM	> 100 µM	> 100 µM	60.1 µM	0.152 µM
CN(O)C(=O)SCC(NC(=O)CCC(N)C(=O)O)C(=O)NCC(=O)O (centres undefined)			> 2000 µM	> 2 µM and 313 µM and > 2000 µM	> 2000 µM	> 2000 µM			> 2 µM	> 2000 µM		> 2 µM		> 2000 µM			> 2000 µM	> 2000 µM	> 2000 µM	> 2 µM and 1200 µM
CCN(Cc1cc(Nc2nc(C)cn3c(-c4cn[nH]c4)cnc23)sn1)C(C)(C)CO	0.0822 µM	6.58 µM	0.0411 µM	0.688 µM	0.0257 µM	12.9 µM	0.0508 µM	4.35 µM	0.0465 µM	12.4 µM	0.0179 µM	0.118 µM	< 0.0107 µM	5.08 µM	0.0689 µM	18.5 µM	0.0387 µM	12.8 µM		
O=C(c1ccccc1)c1ccccc1-c1ccccc1	3.36 µM	38.2 µM	5.38 µM	> 100 µM	3.32 µM	> 100 µM	5.14 µM	> 100 µM			3.06 µM	15.3 µM	1.54 µM	> 100 µM	6.08 µM	> 100 µM	4.43 µM	> 100 µM		
CCOc1cccc(/C=N/N=C2\C(=O)Nc3c(Cl)cc(Cl)cc32)c1O				> 100 µM		> 100 µM		> 100 µM		> 100 µM		> 100 µM		> 100 µM				> 100 µM	> 100 µM	
O=C(Nc1ccc([As](=O)(O)O)cc1)Nc1cccc(Cl)c1Cl		> 100 µM		> 100 µM		> 100 µM		> 100 µM				> 100 µM		> 100 µM				> 100 µM	> 100 µM	
CN1CCC2(CC1)ONC1=NCCN12	51.3 µM	> 100 µM	52.9 µM	> 100 µM			46 µM	> 100 µM	23.6 µM	> 100 µM	47.5 µM	> 100 µM	51.8 µM	> 100 µM	99.8 µM	> 100 µM	31.2 µM	> 100 µM		
COc1cc(Br)c(C=Nc2cccc3cc(OC)c(OC)cc23)cc1OC				> 100 µM		> 100 µM				> 100 µM		66.9 µM		> 100 µM				> 100 µM	39.5 µM	
Cc1nnn[n-]1.N.N.N.N.N.[Cl-].[Co+3]			> 100 µM	> 100 µM	2.88 µM	85 µM			> 100 µM	> 100 µM	> 100 µM	> 100 µM	> 100 µM	> 100 µM			> 100 µM	> 100 µM	> 100 µM	> 100 µM
CC(C)Cn1cnc2c(SCc3ccc(Cl)cc3Cl)nc(N)nc21		> 100 µM		> 100 µM		> 100 µM		> 100 µM		26.9 µM		36.5 µM		> 100 µM		> 100 µM		> 100 µM		
O=C(O)CCC(=O)N1c2ccccc2CC1c1c[nH]c2ccccc12 (centres undefined)				> 100 µM		> 100 µM				> 100 µM		> 100 µM		> 100 µM				> 100 µM	> 100 µM	
O=C(O)C1=C(O)C(C(=O)O)C23CCCCCCCCCCC12C(C(=O)O)C(O)=C3C(=O)O (centres undefined)						> 100 µM				> 100 µM		> 100 µM		> 100 µM					> 100 µM	
Cc1c[n+](=O)c2ccccc2n1[O-]		> 100 µM		> 100 µM		> 100 µM		> 100 µM		> 100 µM		> 100 µM		> 100 µM		> 100 µM		> 100 µM		
O/N=C1/C(=C/c2ccc3c(c2)OCO3)CCCC1C(NO)c1ccc2c(c1)OCO2 (centres undefined)				53.7 µM		86.5 µM				42.5 µM		32.4 µM		> 100 µM				39.8 µM	36.4 µM	
O=C(NCCCCNc1cccccc1=O)OCc1ccccc1				> 100 µM		> 100 µM				> 100 µM				> 100 µM				> 100 µM	> 100 µM	
COC(=O)NC(=O)c1cn(C2OC(CO)C(O)C2O)c(=O)[nH]c1=O (centres undefined)				> 100 µM		> 100 µM				> 100 µM		> 100 µM		> 100 µM				> 100 µM	> 100 µM	
CC1(C)O[C@H]2[C@H](O)C[C@](O)(CO)C[C@H]2O1						> 100 µM				> 100 µM		> 100 µM		> 100 µM				> 100 µM		
O=C(COc1ccc(Cl)cc1)N1N=C(c2ccc(Cl)cc2)CC1(O)c1ccccc1 (centres undefined)				57 µM		61.6 µM				30.6 µM		> 59.4 µM		> 69.3 µM				41.6 µM	28 µM	
